In test [1] the test system is HeLa. As to the kind of experiment: Inhibition of OCDO production by PBPE in HeLa. The test is classed as cell-based. Conditions: Homo sapiens, 40 μM PBPE, 48 hours. The method, then:
(§1) An analogous experiment was reproduced with different cell lines, with the cells tested being incubated for 48 hours in a 40 μM solution of PBPE. It was noted that the OCDO was 100% inhibited for all the lines in the following table that were tested:
(§2) Generally, in order to establish the percentages of OCDO inhibition from the thin-layer chromatography (TLC) plates obtained as in assay 2, the radioactive metabolites are identified and quantified on the basis of said plates using a europium-sensitive plate of GP Phosphor screen type (GE Healthcare) and a Storm 840 phosphorimagor (GE Healthcare). The proportion of radiolabeled oxysterols is determined on the autoradiogram obtained by densitometry using the Image Quant 5.2 software. The percentage is calculated on the basis of the ratio between the amount of oxysterols quantified divided by the sum of the amounts of oxysterols (CEE+CE+CT+OCDO). Since the CEE (CE ester) originates exclusively from the CE, the percentage CE is calculated on the basis of the ratio (CE+CEE)/(CE+CEE+CT+OCDO).

Test [2] concerns TT. As to the kind of experiment: Inhibition of OCDO production by PBPE in TT. Conditions: Homo sapiens, 48 h, read-out: Inhibition of OCDO production. The format is cell-based. As for the experimental part:
as §1, §2

The subject of test [3] is HT-29. The test is described as follows: Inhibition of OCDO production by PBPE in HT-29. The conditions noted are these: Homo sapiens, 40 μM PBPE, 48 hours. The format is cell-based. The method, then: as §1, §2
The test system of test [4] is P19. As to the kind of experiment: Inhibition of OCDO production by PBPE in P19. The test is classed as cell-based, murine. The conditions noted are these: Mus musculus, 40 μM PBPE, 48 hours. As for the experimental part:
as §1, §2

The subject of test [5] is U-937. As to the kind of experiment: Inhibition of OCDO production by PBPE in U-937. The format is cell-based. The conditions noted are these: Homo sapiens, 40 μM PBPE, 48 hours. The method, then:
as §1, §2

Test [6] relates to OCDO. As to the kind of experiment: OCDO content of TS/A tumors by GC/MS. The test is classed as in vivo, mice. The conditions noted are these: PBPE 40 μM, 100 μl intratumorally once a day. The method, then: 5 volumes (relative to the mass removed) of buffer (50 mM Tris-HCl, 150 mM KCl, pH=7.4) are added. The tumors are ground and the homogenates are centrifuged for 5 minutes at 2500 rpm at 4° C. […] After centrifugation (to separate the phases), the organic phase is recovered. The organic phase is evaporated to dryness and then the residue is taken up with 0.5 ml of chloroform. The organic extracts are filtered on 0.5 ml silica cartridges. The polar sterols are eluted sequentially:
1) 0.5 ml of a hexane/chloroform mixture (1/1), 2) 0.5 ml of chloroform, 3) 0.5 ml of ethyl acetate and methanol.
The ethyl acetate fractions are evaporated, silylated (50 μl 1/1 acetonitrile/BSTFA) and then analyzed by GC/MS (2 μl) according to the conditions described above.

Test [7] relates to A-549. As to the kind of experiment: Inhibition of OCDO production by PBPE in A-549. The conditions noted are these: Homo sapiens, A549, 40 μM PBPE, 48 hours. The test is classed as cell-based. The method, then:
as §1, §2

The subject of test [8] is MCF7 cells. As to the kind of experiment: OCDO production by MCF7 cells incubated with [14C]CE, thin-layer chromatography. The test is classed as cell-based, human. The method in brief: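 MCF7 cells incubated with [14C]CE; lipids extracted, separated by silica TLC in ethyl acetate and quantified by phosphorimager densitometry. OCDO inhibition came from oxysterol proportions, OCDO over CEE+CE+CT+OCDO.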

Test [9] deals with B-16-F10. The test is described as follows: Inhibition of OCDO production by PBPE in B-16-F10. The format is cell-based, murine. The conditions noted are these: Mus musculus, B16-F10, 40 μM PBPE, 48 hours. The method, then:
as §1, §2

The test system of test [10] is Saos-2. The test is described as follows: Inhibition of OCDO production by PBPE in Saos-2. The test is classed as cell-based. Conditions: Homo sapiens, 40 μM PBPE, 48 hours. The method, then:
as §1, §2

In test [11] the test system is TS/A cells. As to the kind of experiment: Tumor size of TS/A tumors implanted in BALB/c mice, intratumoral treatment. The format is in vivo. Conditions: PBPE 40 μM, 100 μl intratumorally once a day. As for the experimental part:
A cell culture of TS/A cells was first performed. These TS/A cells are mouse mammary adenocarcinomas (see Nanni P et al., Clin. Exp. Metastasis, 1983 October-December; 1(4): 373-80). The cells are cultured, at 37° C. under 5% CO2, in a DMEM medium supplemented with 2 g/liter of sodium carbonate, 1.2 mM of glutamine (pH 7.4 at 23° C.), 5% of fetal bovine serum (Gibco) and 2.5 ml of antibiotics per liter of medium (penicillin/streptomycin).
The TS/A cells are recovered with trypsin, washed twice and suspended in PBS buffer. The TS/A cells (approximately 4×10^6 […] cells/0.1 ml) are then injected subcutaneously into the flank of 6-week-old female BALB/c mice (supplied by Charles River). […] The animals (10 mice per group) are monitored regularly for tumor development. The volume of the tumors is calculated according to the following formula: L×l^2×0.5 (L is the length and l is the width of the tumor). The experiment was reproduced twice. The results are given in FIG. 18 (the arrow indicates the beginning of the treatment).

For test [12], the system named is SH-N-SH. As to the kind of experiment: Inhibition of OCDO production by PBPE in SH-N-SH. The format is cell-based. Conditions: Homo sapiens, 48 h, read-out: Inhibition of OCDO production. The method, then:
as §1, §2

Where [13] appears, read: MCF7 cells, [14C]CEα, three days, concentration given with each compound, share of labeled oxysterols.

Regarding `c1ccc(Cc2ccc(OCCN3CCCC3)cc2)cc1` [PBPE, N,N-pyrrolidino-[(4-benzyl)phenoxy]ethanamine], the inhibition at 40 µM in [1], in test [2], in test [3], in test [4], in [5] and in test [7] was 100% each time. Besides, the inhibition (usually the percentage by which the read-out fell short of the control) at 40 µM amounted to 100% in test [8] (Homo sapiens, MCF7, MCF-7, 40 μM PBPE, 48 hours); 100% in [9]; 100% in test [10]; 100% in test [12]. Also, the “OCDO (% control)” value was 22.5 ± 5 % control in [6] (Day 28) and 9.6 ± 5 % control in test [6] (Day 37). Besides, the “% CE” value in test [8] (setting [13]) is 89.2%. Moreover, the “% CT” value in [8] (setting [13]) was 4.6%. Further, the “% OCDO” value in test [8] (setting [13]) is on record as 6.2%. The “OCDO production by MCF-7 (% control)” value in [8] (concentration in μM in parentheses after each molecule, control = 100) is listed as less than 1 % control. For the same compound, the results for the “Tumor size (% control)” value in test [11] (Day 28) and in [11] (Day 37) were 71.6 ± 7 % control and 54.5 ± 8 % control, respectively.

The record behind these values is patent publication US20170176446A1, “Methods for Determining the Oncogenic Condition of Cell, Uses Thereof, and Methods for Treating Cancer” (INSERM (INSTITUT NATIONAL DE LA SANTE ET DE LA RECHERCHE …, priority 2009, published 2017).
